Reference: US4873346A, “Substituted benzothiazoles, benzimidazoles, and benzoxazoles” (The Upjohn Company, priority 1985, dated 1989)
Counter-ions that a name gives are not always drawn.

Columns and labels:
mucus secretion = assay: canine tracheal secretion model (inhibitory effect on mucus secretion); type: in vivo
Protocol: Several of the compounds of the present invention were also tested for their inhibitory effect on mucus secretion in the canine tracheal secretion model.

SRS-A formation = assay: SRS-A inhibition in rat mononuclear cells challenged with calcium ionophore; type: cell-based; details: cysteine
Protocol: This test is conducted in rat mononuclear cells incubated in the presence of cysteine and challenged with a calcium ionophore (which induces SRS-A formation).

lipoxygenase = lipoxygenase inhibition, oxygen uptake of washed human platelets after arachidonic acid; type: cell-based
Protocol: Some ot the compounds of the present invention were also tested for lipoxygenase inhibition. Arachidonic acid is added to washed human platelets and the oxygen uptake is measured using oxygraph cells. A decrease of oxygen uptake versus the control cell indicates inhibition of lipoxygenase. For a full description of the procedure see, Wallach, et al., Biochim, Biophys. Acta. 231:445 (1976).

C=CCNc1nc2ccc(O)cc2s1 [2-(2-propenylamino)-6-benzothiazolol, 2-(2-Propenylamino)-6-benzothiazolol]
inhibition of mucus secretion (in words) (mucus secretion): caused inhibition of mucus secretion
inhibition of the leukotriene system (in words) (SRS-A formation): active
inhibition of the lipoxygenase system (in words) (lipoxygenase): active

C=CCCCCSc1nc2ccc(O)cc2s1.O=C(O)/C=C\C(=O)O [2-(5-hexenylthio)-6-benzothiazolol maleic acid salt]
inhibition of mucus secretion (in words) (mucus secretion): caused inhibition

C=CCCCCSc1nc2ccc(O)cc2[nH]1 [2-(5-hexenylthio)-H-benzimidazol-6-ol, 2-(5-Hexenylthio)-1H-benzimidazol-6-ol]
inhibition of mucus secretion (in words) (mucus secretion): caused inhibition

CCN(CC)CCCNc1nc2ccc(O)cc2s1.Cl.Cl [2-[[3-(Diethylamino)propyl]amino]-6-benzothiazolol Dihydrochloride]
inhibition of mucus secretion (in words) (mucus secretion): caused inhibition

CCN(CC)CCCNc1nc2ccc(O)cc2s1 [2-[[3-(Diethylamino)propyl]amino]-6-benzothiazolol, hydroquinone dihydrochloride salt]
inhibition of mucus secretion (in words) (mucus secretion): caused inhibition

COC(=O)CCCCCNc1nc2ccc(O)cc2s1 [6-[(6-hydroxy-2-benzothiazolyl)aminohexanoic acid methyl ester]
inhibition on Indomethacin blocked/Arachidonic Acid (AA) induced mucus secretion (mucus secretion; Indomethacin blocked/AA induced): 100%
inhibition on baseline mucus secretion (mucus secretion; baseline): 21.8%
inhibition on hypoxia mucus secretion (mucus secretion; hypoxia): 63.4%

COC(=O)CCCCCSc1nc2ccc(NC(=O)CCC(=O)O)cc2s1 [6-[[6-[(3-Carboxy-1-oxopropyl)amino]-2-benzothiazolyl]thio]hexanoic acid methyl ester, tromethamine salt]
inhibition of mucus secretion (in words) (mucus secretion): caused inhibition
